Assay results reported in patent US20150174144A1, “TETRACYCLINE COMPOUNDS FOR TREATING NEURODEGENERATIVE DISORDERS” (PARATEK PHARMACEUTICALS, INC., priority 2012, published 2015).

Experiments:
[1] = Peroxynitrite-carbonate radical scavenging assay (DHR probe)
Protocol: Inflammatory conditions are characterized by increasing concentrations of reactive oxygen species. In this study, the ability of Compound 1 to specifically scavenge peroxynitrite-carbonate radicals was determined.
To the first column of a 96-well PCR plate (0.2 mL volume) was added 160 μL of TCWS. One well of the first column would equal one IC50 determination. Typically, test compounds were assayed in duplicate, i.e. two wells of column 1 were filled with each TCWS. To the remaining wells in columns 2-11 was added 80 μL of DWS. Using a multichannel pipettor, column 1 was serially diluted in 2-fold dilutions by removing 80 μL from column 1 and transferring with mixing to column 2. Column 2 was then diluted to column 3 and so on until column 11 where 80 μL of the diluted mixture was removed and discarded. At least 2 wells of row 12 were designated as the 0 test compound control to which 80 μL of DWS was added. One well of row 12 per test compound was designated as the background control to which 80 μL of the TCWS was added.
The plate was covered and incubated for 5 minutes at 37° C. upon which the reaction was initiated by addition of 20 μL of Sin-1 to columns 1-11 using a multichannel pipettor with mixing. The reaction was initiated similarly to the 0 test compound wells of column 12. To the background control wells was added 20 μL of PC buffer. The plate was incubated at 37° C. for 8 minutes (the reaction is linear for 10 minutes) and quenched by addition of 50 μL of AA to all wells with mixing. The plate was placed on ice for 5 minutes. Quenched assay mixtures were stable at room temperature for at least 24 hours.
Each reaction mixture (20 μL) was analyzed for rhodamine 123 product by HPLC using a Phenomenex Luna C18(2) column, 3 um, 4.6×50 mm using an A buffer of water+0.1% TFA and a B buffer of acetonitrile+0.1% TFA and the following gradient method: […]
The absorbance at 280 nm was also recorded to ensure no co-elution of test compound peaks.
Initial examination of the background control samples at the highest test compound concentration were performed to ensure no co-elution of test compound peaks with the product rhodamine 123 at 4 minutes. If co-elution was observed, the compound was not tested until an appropriate HPLC method was developed to separate the product and test compound peaks. The rhodamine 123 AUC was then determined for each test compound concentration and the percent inhibition of rhodamine 123 fluorescence was then determined by the following equation:
% Inhibition=[(AUCo−AUCx)/AUCo]*100
Where AUCo is the AUC of the rhodamine 123 peak at 0 test compound concentration and AUCX is the AUC of the rhodamine 123 peak at each test compound concentration=x.
The standard error of the curve fit for the IC50 was also determined along with the Hill slope. The IC50 determined for uric acid was divided by the IC50 determined for each test compound to generate Uric Acid Equivalents, a measure of the peroxynitrite-carbonate radical scavenging ability relative to uric acid.
Uric Acid Equivalents=[…]

[2] = Metabolism; assay type: in vitro ADME; details: pre-clinical ADME studies
[3] = GLP phototoxicity assay
Protocol: (§1) The compound was also shown to be negative in a GLP phototoxicity assay. […] Both 14-day acute toxicity and 28-day toxicology study were performed in rats with Compound 1 along with minocycline for comparison. Animals were administered daily oral doses from 15 to 150 mg/kg for up to 4 weeks followed by a recovery period.

[4] = 14-day acute toxicity and 28-day toxicology study in rats; assay type: in vivo
Protocol: as §1

[5] = tested on: focal cerebral ischemia (permanent MCA occlusion); test: Rat stroke model, permanent MCA occlusion; assay type: in vivo, Male Wistar rats
[6] = tested on: Fmr1 KO mice and wild-type littermates; test: Elevated Plus Maze test, mouse model of Fragile X Syndrome; assay type: in vivo; details: 10 mg/kg/d i.p. osmotic pump, 1 week
Protocol: (§2) The purpose of this study was to test Compound 1 for treating Fragile X Syndrome. This study utilized Fmr1 KO mice, an animal model of Fragile X Syndrome.
(§3) The Fmr1 KO mice (C57BL/6 background) were kindly provided the FRAXA Foundation. Mice were housed in groups of the same genotype in a temperature and humidity controlled room with a 12-h light-dark cycle (lights on 7 am to 7 pm). Testing was conducted during the light phase. Food and water were available ad libitum. Testing was conducted on Fmr1 KO mice and their wild-type littermates. They were housed in commercial plastic cages purchased in the UK. Experiments were conducted in line with the requirements of the UK Animals (Scientific Procedures) Act, 1986.
(§4) The dosing protocol used is shown below. Mice were dosed at 6-7 weeks by intraperitoneal (i.p.) infusion by osmotic pump (0.5 μl/hour) for 1 week. The solution of 0.9% saline was used as a vehicle, and 10 mice were dosed per each group.

[7] = tested on: Fmr1 KO2 mice; test: Marble burying test, mouse model of Fragile X Syndrome; assay type: in vivo; details: 10 mg/kg/d
Protocol: as §2, §3, §4

CCc1cc(N(C)C)c2c(c1O)C(=O)C1=C(O)[C@]3(O)C(=O)C(C(N)=O)=C(O)[C@@H](N(C)C)[C@@H]3C[C@@H]1C2 [Compound 1]
IC50 ([1]; Sin-1, 37° C., 8 minutes, read-out: IC50, inhibition of oxidation of DHR probe (peroxynitrite-carbonate scavenging)): 11 µM | Uric Acid Equivalents ([1]; relative to uric acid): 1.13 | Effects in metabolism [2]: no significant effects | GLP phototoxicity assay result [3]: negative | Thyroid tissue staining ([4]; at comparable doses to minocycline): little or no thyroid tissue staining | Adverse effects ([4]; daily oral doses from 15 to 150 mg/kg for up to 4 weeks): Few adverse effects were observed at any dose | Neurological score ([5]; 40 mg/kg i.v. at −90 min, 90 min, 6 hr after MCAO, permanent): 1.1 ± 0.3 | Infarct volume (Means ± SD) ([5]; 40 mg/kg i.v. at −90 min, 90 min, 6 hr after MCAO, permanent, 24 hr after MCAO): 145.7 ± 33.9 mm3 | Effect on infarct volume ([5]; permanent occlusion, treatment started at 90 min pre-occlusion): statistically significant reductions in infarct volume | Elevated Plus Maze: time spent in the close arm, Mean time ([6]; Fmr1 KO mice): 259.100 min | Elevated Plus Maze: time spent in the close arm, Mean time ([6]; WT mice): 227.800 min | Marble burying deficit of Fmr1 KO2 mice [7]: significantly rescued
